# Data taken from patent US7579474B2, “Substituted piperidines as modulators of dopamine neurotransmission” (NSAB, Filial AF Neurosearch AB, Sverige, priority 2004, dated 2009).
# Where two headings read alike, the source gives them in different places.
# Legend:
# [1] = test system: amphetamine-induced hyper-locomotion; experiment: Reduction of amphetamine-induced hyper-locomotion; type: in vivo, rat; settings: rats pretreated with d-amphetamine 1.5 mg/kg i.p., test compound s.c., last 45 minutes of one hour, range covers 95% of fits
# Excerpt: In this model, dopaminergic neurotransmission is increased by systemic administration of d-amphetamine at a dose that is sufficiently high to produce a large increase in locomotor activity. The ability of a compound to antagonize this hyperactivity reflects anti-dopaminergic properties, which are part of the dopaminergic stabiliser profile.
# Photobeam sensors were spaced 2.5 cm apart.
# For most compounds, the evaluation is based on 16 amphetamine pre-treated animals over the dose range 0, 11, 33 and 100 μmol/kg s.c. in one single experiment, with complementary doses in separate experiments. Calculations are based on distance during the last 45 minutes of one hour of measurement. The distances are normalised to amphetamine-control and fitted by least square minimization to the function “End-(End-Control)/(1+(dose/ED50)^Slope)”. […] To estimate confidence levels for the parameters, the fit is repeated 100 times with a random evenly distributed squared weight (0 to 1) for every measurement value. Presented ED50-ranges cover 95% of these values.
# [2] = type: in vitro ADME; settings: rat, microsomes, 0.25 h, pH 7.4
# Protocol: Rat liver microsomes were isolated as described by Förlin (1980) Effects of Clophen A50, 3-methylcholantrene, pregnenolone-16aq-carbonitrile and Phenobarbital on the hepatic microsomal cytochrome P-450-dependent monooxygenaser system in rainbow trout, salmo garirdneri, of different age and sex. Tox Appl Pharm. 54(3) 420-430, with minor modifications e.g. 3 mL/g liver of a 0.1 M Na/K*PO4 buffer with 0.15 M KCl, pH 7.4, (buffer 1) was added before homogenisation, the homogenate was centrifuged for 20 minutes instead of 15, the supernatant was ultracentrifuged at 100.000 g instead of 105.000 g and the pellet from the ultracentrifugation was resuspended in 1 mL/g liver of 20% v/v 87% glycerol in buffer 1.
# 1 μL of, 0.2 or 1 mM test substance diluted in water and 10 μL 20 mg/mL rat liver micro-some were mixed with 149 μL 37° C. buffer 1 and the reaction was started by addition of 40 μL 4.1 mg/mL NADPH. After 0 or 15 minutes incubation at 37° C. in a heating block (LAB-LINE, MULTI-BLOK Heater or lab4you, TS-100 Thermo shaker at 700 rpm) the reaction was stopped by addition of 100 μL pure acetonitrile. The protein precipitation was then removed by rejecting the pellet after centrifugation at 10.000 g for 10 minutes (Heraeus, Biofuge fresco) in 4° C. The test compound was analysed using HPLC-MS (Hewlett-Packard 1100MSD Series) with a Zorbax SB-C18 column (2.1*150 mm, 5 μm) using 0.03% formic acid and acetonitrile as mobile phase (gradient) or a Zorbax Eclipse XDB-C18 (3*75 mm, 3.5 μm) using 0.03% acetic acid and acetonitrile as mobile phase (gradient). The 15 min turnover was calculated as the fraction of test compound eliminated after 15 minutes, expressed in percent of 0 min levels, ie 100*[conc test compound at 0 min−concentration at 15 min]/conc at 0 min.
# Preparation of liver microsomes was performed as described in Förlin (1980). Protocols for incubation with liver microsomes are referred in Crespi et Stresser (2000), and Renwick et al (2001).
# [3] = Oral bioavailability in rat; type: in vivo
# Protocol: Experiments are performed 24 hours after implantation of arterial and venous catheters. Test compound is administered orally at 12.5 μmol/kg or intravenously at 5 μmol/kg using the venous catheters, n=3 per group. Arterial blood samples are then taken during […] at 0, 3, 9, 27, 60, 120, 180, 240, 300 and, 360 minutes after administration of the test compound. The oral bioavailability was calculated as the ratio of the AUC (Area under curve) obtained after oral administration over the AUC obtained after intravenous administration for each rat. The parameter AUC was calculated according to the following: AUC: the area under the plasma concentration versus time curve from time zero to the last concentration measured (Clast), calculated by the log/linear trapezoidal method.
# The levels of test compound are measured by means of liquid chromatography-mass spectrometry (LC-MS). (Hewlett-Packard 1100MSD Series). The module include a quaternary pump system, vacuum degasser, thermostatted autosampler, thermostatted column compartment, diode array detector and API-ES spray chamber. […]
# Extractions procedure: Plasma samples (0.25-0.5 ml) were diluted with water to 1 ml, and 60 pmol (100 μl) internal standard (−)-OSU6241 was added. […] The selective ion (MH^+) was monitored for each Example, and MH^+ 296 for (−)-OSU6241 ((3-[3-(ethylsulfonyl)phenyl]-1-propylpiperidine). […]
# [4] = test system: Locomotor activity in MK-801 pre-treated rats; experiment: Locomotor activity in MK-801 pre-treated rats; settings: MK-801 0.7 mg/kg i.p. 90 minutes before test compound; 100 μmol/kg; recorded 30-60 minutes after administration
compound,measurement,setting,value
CCCN1CCC(c2ccc(F)c(C(F)(F)F)c2)CC1,ED50,[1]; Rattus norvegicus,30 µmol/kg
COc1cccc(C2(O)CCN(C)CC2)c1OC,ED50 reduction of amphetamine-induced hyper-locomotion,[1],inactive
"CCCN1CCC(O)(c2cccc(C(F)(F)F)c2F)CC1 [Example 1, 4-[2-FLUORO-3-(TRIFLUOROMETHYL)PHENYL]-1-PROPYLPIPERIDIN-4-OL]",turnover at 15 minutes,[2],27%
"CCN1CCC(O)(c2cccc(C(F)(F)F)c2F)CC1 [Example 3, 4-[2-FLUORO-3-(TRIFLUOROMETHYL)PHENYL]-1-ETHYLPIPERIDIN-4-OL]",turnover at 15 minutes,[2],8%
same,bioavailability,[3]; in vivo,~80%
"CCCN1CCC(O)(c2ccc(F)c(C(F)(F)F)c2)CC1 [Example 8, 4-[4-FLUORO-3-(TRIFLUOROMETHYL)PHENYL]-1-PROPYLPIPERIDIN-4-OL]",turnover at 15 minutes,[2],29%
same,bioavailability,"[3]; plasma, oral 12.5 μmol/kg vs i.v. 5 μmol/kg, AUC ratio, read-out: oral bioavailability",~29%
CCCN1CCC(O)(c2cccc(S(C)(=O)=O)c2)CC1 [drawing 51],ED50 reduction of amphetamine-induced hyper-locomotion,[1],inactive
CCCN1CCC(O)(c2cccc(C(F)(F)F)c2F)CC1 [drawing 55],"Locomotor activity, MK + example 100 μmol/kg",[4],17802 ± 6842 (P = 0.09) counts/30 min ± SEM
CCN1CCC(O)(c2cccc(C(F)(F)F)c2F)CC1 [drawing 56],"Locomotor activity, MK + example 100 μmol/kg",[4],18307 ± 7375 (P =0.3) counts/30 min ± SEM
CCCN1CCC(O)(c2cccc(Cl)c2Cl)CC1 [drawing 57],"Locomotor activity, MK + example 100 μmol/kg",[4],9564 ± 4584 (P =0.16) counts/30 min ± SEM
CCCN1CCC(O)(c2ccc(F)c(C(F)(F)F)c2)CC1 [drawing 58],"Locomotor activity, MK + example 100 μmol/kg",[4],7312 ± 4537 (P =0.0005) counts/30 min ± SEM
COCCN1CCC(O)(c2ccc(Cl)c(C(F)(F)F)c2)CC1 [drawing 59],"Locomotor activity, MK + example 100 μmol/kg",[4],7407 ± 3282 (P =0.00003) counts/30 min ± SEM
